Measured values from PubChem BioAssay (NCI).
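Briefly, cells in 96-well plates were exposed to five compound concentrations for 48 h, and endpoints were estimated by linear interpolation. GI50: concentration for 50% inhibition of growth. TGI is the concentration that stops growth completely.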

Legend:
Experiment in all cases: NCI tumour cell line growth inhibition, 48 h
[1] = tested on: 786-0 renal
[2] = tested on: HL-60(TB) leukemia
[3] = tested on: DU-145 prostate
[4] = tested on: SF-268 CNS
[5] = tested on: KM12 colon
[6] = tested on: SW-620 colon
[7] = tested on: RXF 393 renal
[8] = tested on: OVCAR-5 ovarian
[9] = tested on: UACC-62 melanoma
[10] = tested on: IGROV1 ovarian
[11] = tested on: U251 CNS
[12] = tested on: UACC-257 melanoma
[13] = tested on: MALME-3M melanoma
[14] = tested on: OVCAR-4 ovarian
[15] = tested on: NCI-H226 lung
[16] = tested on: HCC-2998 colon
[17] = tested on: MCF7 breast
[18] = tested on: SK-MEL-5 melanoma
[19] = tested on: SK-OV-3 ovarian
[20] = tested on: BT-549 breast
[21] = tested on: CAKI-1 renal
[22] = tested on: COLO 205 colon
[23] = tested on: RPMI-8226 leukemia
[24] = tested on: SNB-75 CNS
[25] = tested on: HT29 colon
[26] = tested on: MOLT-4 leukemia
[27] = tested on: HS 578T breast
[28] = tested on: MDA-MB-231 breast
[29] = tested on: K-562 leukemia

## O=C(CN1CCN(c2ncccn2)CC1)Nc1ccc(Cl)cc1C(=O)c1ccccc1Cl
[1]
  GI50: 62 µM
  TGI: > 100 µM
[2]
  GI50: 25.3 µM
  TGI: > 100 µM
[3]
  GI50: > 100 µM
  TGI: > 100 µM
[4]
  GI50: > 100 µM
  TGI: > 100 µM
[5]
  GI50: 69 µM
  TGI: > 100 µM
[6]
  GI50: > 100 µM
  TGI: > 100 µM
[7]
  GI50: > 100 µM
  TGI: > 100 µM
[8]
  GI50: > 100 µM
  TGI: > 100 µM
[9]
  GI50: 92.8 µM
  TGI: > 100 µM
[10]
  GI50: 93.2 µM
  TGI: > 100 µM
[11]
  GI50: > 100 µM
  TGI: > 100 µM
[12]
  GI50: > 100 µM
  TGI: > 100 µM
[13]
  GI50: > 100 µM
  TGI: > 100 µM
[14]
  GI50: 43.9 µM
  TGI: > 100 µM
[15]
  GI50: > 100 µM
  TGI: > 100 µM
[16]
  GI50: > 100 µM
  TGI: > 100 µM
[17]
  GI50: 83.3 µM
  TGI: > 100 µM
[18]
  GI50: 52.4 µM
  TGI: > 100 µM
[19]
  GI50: > 100 µM
  TGI: > 100 µM
[20]
  GI50: > 100 µM
  TGI: > 100 µM
[21]
  GI50: > 100 µM
  TGI: > 100 µM
[22]
  GI50: > 100 µM
  TGI: > 100 µM
[23]
  GI50: 9.51 µM
  TGI: > 100 µM
[24]
  GI50: 54.9 µM
  TGI: > 100 µM
[25]
  GI50: 63.6 µM
  TGI: > 100 µM
[26]
  GI50: 21.9 µM
  TGI: > 100 µM
[27]
  GI50: 83.6 µM
  TGI: > 100 µM
[28]
  GI50: > 100 µM
  TGI: > 100 µM
[29]
  GI50: 32 µM
  TGI: > 100 µM
